Converted amounts (≈) assume the structure as drawn. “And” between values parts separate entries of the source, which are not always exact repeats. Identical values can stand only once.

Common to all, as to assay: ≥ marks a high value that may be exact or a test limit, other limits are often not marked, values filed in µg/mL are converted to µM
Test [1] deals with Staphylococcus aureus ATCC 29213.
Test [2] deals with Escherichia coli ATCC 25922.
The subject of test [3] is Acinetobacter baumannii ATCC 19606.
Test [4] concerns Enterococcus faecalis ATCC 29212.
Test [5] concerns Staphylococcus aureus ATCC 25923.
For test [6], the system named is Pseudomonas aeruginosa ATCC 27853.
Test [7] concerns Escherichia coli.
In test [8] the test system is Pseudomonas aeruginosa.
Test [9] deals with Staphylococcus aureus.
Test [10] deals with Bacillus subtilis.

As for `CC[C@H](C)[C@H](NC(=O)[C@H](CCCN=C(N)N)NC(=O)[C@H](CCC(N)=O)NC(=O)[C@@H](NC(=O)[C@@H](NC(=O)[C@H](CCCN=C(N)N)NC(=O)[C@H](CCCCN)NC(=O)[C@@H](N)Cc1ccccc1)[C@@H](C)CC)C(C)C)C(=O)N[C@@H](CCCCN)C(=O)N[C@@H](CC(=O)O)C(=O)N[C@@H](Cc1cnc[nH]1)C(=O)N[C@@H](CC(C)C)C(=O)N[C@@H](CCCN=C(N)N)C(=O)O` [FKRIVQRIKDHLR], the MIC (usually the lowest concentration that inhibits growth of the organism) in [1] is above 40 µM; in test [2], 10 µM (≈ 17.1 µg/mL).
With `CC(C)C[C@H](NC(=O)[C@H](CCCCN)NC(=O)CNC(=O)[C@H](CC(C)C)NC(=O)[C@H](CC(C)C)NC(=O)[C@H](C)NC(=O)[C@H](CC(N)=O)NC(=O)[C@H](CC(C)C)NC(=O)[C@H](C)NC(=O)[C@H](CCC(N)=O)NC(=O)CNC(=O)[C@@H](NC(=O)[C@H](Cc1ccccc1)NC(=O)CNC(=O)[C@H](CC(C)C)NC(=O)[C@@H](N)Cc1ccccc1)C(C)C)C(N)=O` [FLGFVGQALNALLGKL], the MIC in test [3] is above 64 µM; in test [4], above 64 µM; in test [1] it was 32 µM (≈ 53.1 µg/mL); in test [2], above 64 µM.
`CC(C)C[C@H](NC(=O)[C@H](CC(C)C)NC(=O)[C@H](CCCCN)NC(=O)[C@H](CCCCN)NC(=O)[C@H](CC(C)C)NC(=O)[C@H](CCC(N)=O)NC(=O)[C@H](CCCCN)NC(=O)[C@H](CC(C)C)NC(=O)[C@@H](N)Cc1ccccc1)C(N)=O` [FLKQLKKLL]: the MIC in test [3] was above 113 µM; in [5] it was 113 µM (≈ 128 µg/mL); in test [2] it was 56.6 µM (≈ 63.9 µg/mL); in test [6] it was 7.08 µM (≈ 7.99 µg/mL).
Take `CC(C)C[C@H](NC(=O)[C@H](CC(C)C)NC(=O)[C@H](CCCCN)NC(=O)[C@H](CCCCN)NC(=O)[C@H](CC(C)C)NC(=O)[C@H](Cc1ccc(O)cc1)NC(=O)[C@H](CCCCN)NC(=O)[C@H](CC(C)C)NC(=O)[C@@H](N)Cc1ccccc1)C(N)=O` [FLKYLKKLL]: the minimal inhibitory concentration (MIC) in test [3] was 13.7 µM and 27.5 µM; in [2] it was 13.7 µM and 27.5 µM.
`CC[C@H](C)[C@H](NC(=O)CN)C(=O)NCC(=O)N[C@@H](CCCCN)C(=O)N[C@@H](Cc1ccccc1)C(=O)N[C@H](C(=O)N[C@@H](Cc1cnc[nH]1)C(=O)N[C@@H](C)C(=O)N[C@@H](C)C(=O)N[C@@H](CCCCN)C(=O)N[C@@H](CCCCN)C(=O)N[C@@H](Cc1ccccc1)C(=O)NCC(=O)N[C@@H](CCCCN)C(=O)N[C@@H](CC(C)C)C(=O)N[C@@H](Cc1ccccc1)C(=O)N[C@H](C(=O)NCC(=O)N[C@@H](CCC(=O)O)C(=O)N[C@H](C(=O)N[C@@H](CCSC)C(=O)N[C@@H](CC(N)=O)C(=O)N[C@@H](CO)C(N)=O)[C@@H](C)CC)[C@@H](C)CC)[C@@H](C)CC` [GIGKFIHAAKKFGKLFIGEIMNS]: the figures for the MIC in test [7], in test [8] and in test [9] were 2.4 µM (≈ 6.01 µg/mL), 23.1 µM (≈ 57.8 µg/mL) and 9.6 µM (≈ 24.1 µg/mL), respectively.
As to `CC[C@H](C)[C@H](NC(=O)CN)C(=O)N[C@@H](CC(C)C)C(=O)N[C@@H](CO)C(=O)N[C@@H](CC(N)=O)C(=O)N[C@H](C(=O)N[C@@H](CC(C)C)C(=O)NCC(=O)N[C@@H](CCSC)C(=O)NCC(=O)N[C@@H](CCCCN)C(=O)N[C@@H](CCCCN)C(=O)N[C@H](C(=O)N[C@H](C(=O)N[C@H]1CSSC[C@@H](C(=O)O)NC(=O)[C@H](CC(C)C)NC(=O)CNC(=O)[C@H](CO)NC(=O)[C@H](CC(C)C)NC(=O)CNC1=O)C(C)C)[C@@H](C)CC)C(C)C` [GILSNVLGMGKKIVCGLSGLC], the MIC in test [7] was 70 µM (≈ 144 µg/mL); in [9], above 100 µM.
For the compound `CC[C@H](C)[C@H](N)C(=O)N[C@@H](CC(N)=O)C(=O)N[C@@H](Cc1c[nH]c2ccccc12)C(=O)N[C@@H](CCCCN)C(=O)N[C@@H](CCCCN)C(=O)NCC(=O)N[C@@H](CCCCN)C(=O)N[C@@H](CCC(=O)O)C(=O)N[C@H](C(=O)N[C@@H](CC(C)C)C(=O)N[C@@H](CCCCN)C(=O)N[C@@H](C)C(=O)N[C@@H](CC(C)C)C(N)=O)C(C)C` [INWKKGKEVLKAL], the results for the minimal inhibitory concentration (MIC) in test [7] and in [10] were above 100 µM and at least 100 µM, respectively.
`CC[C@H](C)[C@H](NC(C)=O)C(=O)N[C@@H](CC(N)=O)C(=O)N[C@@H](Cc1c[nH]c2ccccc12)C(=O)N[C@@H](CC(C)C)C(=O)N[C@@H](CCCCN)C(=O)N[C@@H](CC(C)C)C(=O)NCC(=O)N[C@@H](CCCCN)C(=O)N[C@@H](CCCCN)C(=O)N[C@@H](CC(C)C)C(=O)N[C@@H](CC(C)C)C(=O)N[C@@H](CO)C(=O)N[C@@H](C)C(=O)N[C@@H](CC(C)C)C(N)=O` [INWLKLGKKLLSAL]: the minimum inhibitory concentration (MIC) in test [7] is above 100 µM; in test [10], 25 µM (≈ 41 µg/mL).
As for `CC[C@H](C)[C@H](N)C(=O)N[C@@H](CC(N)=O)C(=O)N[C@@H](Cc1c[nH]c2ccccc12)C(=O)N[C@@H](CO)C(=O)N[C@@H](CO)C(=O)N[C@H](C(=O)N[C@@H](Cc1ccccc1)C(=O)N[C@@H](CCC(=O)O)C(=O)N[C@@H](CCCCN)C(=O)N[C@H](C(=O)N[C@@H](CCCCN)C(=O)N[C@@H](CC(N)=O)C(=O)N[C@@H](CC(C)C)C(=O)N[C@H](C(N)=O)C(C)C)C(C)C)[C@@H](C)CC` [INWSSIFEKVKNLV], the MIC in [7] is 35 µM (≈ 58.7 µg/mL); in test [10], at least 40 µM.
`CC[C@H](C)[C@H](NC(=O)[C@H](Cc1ccccc1)NC(=O)[C@H](CO)NC(=O)[C@H](CCCCN)NC(=O)[C@H](Cc1c[nH]c2ccccc12)NC(=O)[C@@H](N)CCCCN)C(=O)N[C@@H](CCCCN)C(=O)N[C@@H](CCCCN)C(=O)N[C@@H](C)C(=O)N[C@@H](CCCCN)C(=O)N[C@H](C(=O)N[C@@H](CO)C(=O)N[C@@H](Cc1ccccc1)C(=O)N[C@@H](CC(C)C)C(=O)N[C@@H](Cc1cnc[nH]1)C(=O)N[C@@H](CO)C(=O)N[C@@H](C)C(=O)N[C@@H](CCCCN)C(=O)N[C@@H](CCCCN)C(=O)N[C@@H](Cc1ccccc1)C(N)=O)[C@@H](C)O` [KWKSFIKKAKTSFLHSAKKF] yielded an MIC in test [8] of 10.4 µM (≈ 25 µg/mL).
`CC[C@H](C)[C@H](NC(=O)[C@H](Cc1ccccc1)NC(=O)[C@H](CO)NC(=O)[C@H](CCCCN)NC(=O)[C@H](Cc1c[nH]c2ccccc12)NC(=O)[C@@H](N)CCCCN)C(=O)N[C@@H](CCCCN)C(=O)N[C@@H](CCCCN)C(=O)N[C@@H](CC(C)C)C(=O)N[C@H](C(=O)N[C@@H](CO)C(=O)N[C@@H](CCCCN)C(=O)N[C@@H](Cc1ccccc1)C(=O)N[C@@H](CC(C)C)C(=O)N[C@@H](Cc1cnc[nH]1)C(=O)N[C@@H](CO)C(=O)N[C@@H](C)C(=O)N[C@@H](CC(=O)O)C(=O)N[C@@H](CCCCN)C(=O)N[C@@H](Cc1ccccc1)C(N)=O)[C@@H](C)O` [KWKSFIKKLTSKFLHSADKF]: the MIC in [8] stood at 10.2 µM (≈ 25 µg/mL).
On to `CC[C@H](C)[C@H](NC(=O)[C@@H](NC(=O)[C@H](CO)NC(=O)[C@@H]1CCCN1C(=O)[C@@H](NC(=O)[C@@H](NC(=O)[C@H](CO)NC(=O)[C@H](CO)NC(=O)[C@H](CC(C)C)NC(=O)[C@H](C)NC(=O)[C@H](CO)NC(=O)[C@H](CC(C)C)NC(=O)[C@H](C)NC(=O)[C@H](C)NC(=O)CNC(=O)[C@H](CC(C)C)NC(=O)[C@@H](N)CC(C)C)C(C)C)[C@@H](C)CC)C(C)C)C(=O)N[C@@H](CO)C(=O)N[C@@H](Cc1c[nH]c2ccccc12)C(=O)N[C@@H](Cc1ccccc1)C(=O)N[C@@H](CCC(N)=O)C(=O)N[C@@H](CCCCN)C(N)=O` [LLGAALSALSSVIPSVISWFQK], for which the MIC in [3] was 32 µM (≈ 73.2 µg/mL); in test [4] it was 16 µM (≈ 36.6 µg/mL); in test [1] it was 4 µM (≈ 9.15 µg/mL); in [2], above 64 µM; in [9] it was 8 µM (≈ 18.3 µg/mL).
`CC[C@H](C)[C@H](NC(=O)[C@@H]1CCCN1C(=O)[C@H](CC(C)C)NC(=O)[C@@H](N)CC(C)C)C(=O)N[C@H](C(=O)NCC(=O)N[C@@H](CC(N)=O)C(=O)N[C@@H](CC(C)C)C(=O)N[C@@H](CC(C)C)C(=O)N[C@@H](CCCCN)C(=O)N[C@@H](CO)C(=O)N[C@@H](CC(C)C)C(=O)N[C@@H](CC(C)C)C(=O)NCC(=O)N[C@@H](Cc1c[nH]c2ccccc12)C(=O)N[C@@H](CCCCN)C(=O)N[C@@H](CCCN=C(N)N)C(=O)N[C@@H](CCCCN)C(=O)N[C@@H](CCCN=C(N)N)C(=O)N[C@@H](Cc1ccccc1)C(=O)NCC(N)=O)C(C)C` [LLPIVGNLLKSLLGWKRKRFG]: the MIC in test [4] was 5 µM and 12.5 µM; in [6], 4 µM and 8 µM.
For `CC[C@H](C)[C@H](NC(=O)[C@H](CS)NC(=O)[C@H](CCCN=C(N)N)NC(=O)[C@@H](N)CC(C)C)C(=O)N[C@@H](C)C(=O)N[C@@H](CC(C)C)C(=O)N[C@@H](CCCN=C(N)N)C(=O)N[C@@H](CCCCN)C(=O)N[C@@H](CCCCN)C(N)=O` [LRCIALRKK], the minimum inhibitory concentration (MIC) was 20.6 µM (≈ 22.6 µg/mL) in test [7] and above 58.2 µM in test [9].
In the case of `CC(=O)N[C@@H](CCC(N)=O)C(=O)N[C@@H](C)C(=O)N[C@@H](CCCCN)C(=O)O` [QAK], the MIC in [1] was 21.7 µM (≈ 8.41 µg/mL); in test [2], 10.9 µM (≈ 4.21 µg/mL).
Take `CC(C)[C@H](NC(=O)[C@H](Cc1c[nH]c2ccccc12)NC(=O)[C@H](CCCCN)NC(=O)[C@@H](N)CCCN=C(N)N)C(=O)N[C@@H](Cc1ccc(O)cc1)C(=O)N[C@@H](Cc1c[nH]c2ccccc12)C(=O)N[C@@H](CCCN=C(N)N)C(=O)N[C@@H](CC(N)=O)C(=O)N[C@@H](CCCN=C(N)N)C(=O)O` [RKWVYWRNR]: the MIC came to 22.9 µM (≈ 31.3 µg/mL) in test [1] and 91.7 µM (≈ 125 µg/mL) in test [2].
For `CC(C)C[C@H](NC(=O)[C@H](Cc1ccc(O)cc1)NC(=O)[C@H](CCCCN)NC(=O)[C@H](Cc1c[nH]c2ccccc12)NC(=O)[C@H](Cc1ccccc1)NC(=O)[C@H](CCCCN)NC(=O)[C@H](CCCN=C(N)N)NC(=O)[C@@H](N)Cc1c[nH]c2ccccc12)C(=O)N[C@@H](CCCCN)C(N)=O` [WRKFWKYLK], the MIC in [4] is 185 µM and > 92.3 µM; in test [1], 22.9 µM (≈ 31 µg/mL); in test [2] it was 22.9 µM (≈ 31 µg/mL).

Values taken from DBAASP.
